Source: PubChem BioAssay (NCI)
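Compound exposure: 48 hours, 5 concentrations, 96-well plates. GI50 = concentration required for 50% inhibition of growth. TGI marks complete inhibition of growth.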

Experiments:
Experiment in all cases: DTP human tumour cell line panel, 48 h
[1] = test system: CCRF-CEM leukemia
[2] = test system: EKVX NSCLC
[3] = test system: UACC-62 melanoma
[4] = test system: KM12 colon
[5] = test system: OVCAR-3 ovarian
[6] = test system: T-47D breast
[7] = test system: OVCAR-4 ovarian
[8] = test system: MDA-MB-435
[9] = test system: IGROV1 ovarian
[10] = test system: MDA-MB-231 breast

`CC(=O)c1ccc(Oc2c3ccccc3nc3occc23)cc1` gave a GI50 [1] of 4.8 µM, a TGI [1] greater than 100 µM and a GI50 [2] of 73.3 µM. It also gave a TGI [2] greater than 100 µM, a GI50 [3] of 2.11 µM and a TGI [3] of 7.95 µM. It also gave a GI50 [4] of 9.12 µM, a TGI [4] greater than 100 µM and a GI50 [5] of 2.19 µM. For the same molecule, the TGI [5] was 6.58 µM, the GI50 [6] was 8.21 µM and the TGI [6] was greater than 100 µM. It also gave a GI50 [7] of 46.9 µM, a TGI [7] greater than 100 µM and a GI50 [8] of 2.02 µM. The TGI [8] was 5.41 µM, the GI50 [9] was 55.7 µM and the TGI [9] was greater than 100 µM.
With `O=C1CCc2ccc(O)c(c2)Oc2ccc(cc2)[C@@H]2O[C@@H]2CO1` the TGI [1] was greater than 100 µM, the TGI [2] was greater than 100 µM and the TGI [3] was greater than 100 µM. The TGI [4] was greater than 100 µM, the TGI [5] was greater than 100 µM and the TGI [7] was greater than 100 µM. For the same molecule, the TGI [9] was 50.5 µM.
`CC(=O)[CH-]C(=O)c1ccccc1.CC(=O)[CH-]C(=O)c1ccccc1.CC(=O)[CH-]C(=O)c1ccccc1.[Br-].[Zr+4]` was tested, and the GI50 [1] was 22.3 µM, the TGI [1] was greater than 100 µM and the GI50 [2] was 57.5 µM. The TGI [2] was greater than 100 µM, the GI50 [3] was greater than 100 µM and the TGI [3] was greater than 100 µM. For the same molecule, the GI50 [4] was greater than 100 µM, the TGI [4] was greater than 100 µM and the GI50 [5] was 48.1 µM. The TGI [5] was greater than 100 µM, the GI50 [7] was 82.1 µM and the TGI [7] was greater than 100 µM. The GI50 [9] was greater than 100 µM and the TGI [9] was greater than 100 µM.
Molecule `CCOC(=O)c1cc(C(=O)c2cc(OC)c(OC)c(OC)c2)n2ccc(-c3cc[n+](CC(=O)c4cc(OC)c(OC)c(OC)c4)cc3)cc12` has a GI50 [2] of 2.64 µM, a TGI [2] of 10.3 µM and a GI50 [10] of 1.66 µM. For the same molecule, the TGI [10] was 3.29 µM, the GI50 [3] was 2.32 µM and the TGI [3] was 5.72 µM. For the same molecule, the GI50 [4] was 1.81 µM, the TGI [4] was 3.42 µM and the GI50 [5] was 1.83 µM. It also gave a TGI [5] of 3.6 µM, a GI50 [6] of 1.94 µM and a TGI [6] of 4.85 µM. For the same molecule, the GI50 [7] was 1.74 µM, the TGI [7] was 3.67 µM and the GI50 [8] was 1.9 µM. The TGI [8] was 3.85 µM, the GI50 [9] was 2.12 µM and the TGI [9] was 5.92 µM.
`Nc1nc(N)c(-c2ccc(Cl)c(Cl)c2)c(CP(Cl)(Cl)(Cl)Br)n1` was tested, and the GI50 [1] was 8.13 µM, the TGI [1] was greater than 100 µM and the GI50 [10] was 9.62 µM. For the same molecule, the TGI [10] was greater than 100 µM, the GI50 [3] was 6.4 µM and the TGI [3] was 32.2 µM. For the same molecule, the GI50 [4] was 14.3 µM, the TGI [4] was greater than 100 µM and the GI50 [5] was 21.1 µM. The TGI [5] was greater than 100 µM, the GI50 [6] was 34.1 µM and the TGI [6] was greater than 100 µM. The GI50 [7] was 53.8 µM, the TGI [7] was greater than 100 µM and the GI50 [8] was 4.4 µM. For the same molecule, the TGI [8] was 84.3 µM, the GI50 [9] was 8.92 µM and the TGI [9] was 61.8 µM.
Work on `CCc1ccccc1NC(=O)C(=O)C(C#N)c1c(Cl)cccc1Cl` (stereo not drawn) yielded a TGI [1] greater than 100 µM, a TGI [2] greater than 100 µM and a TGI [3] greater than 100 µM. The TGI [4] was greater than 100 µM, the TGI [5] was greater than 100 µM and the TGI [9] was greater than 100 µM.
`CCCCNCCCCCNc1cc(OC)cc2cccnc12` showed a GI50 [1] of 28.1 µM, a TGI [1] of 74.2 µM and a GI50 [2] of 29.6 µM. For the same molecule, the TGI [2] was 99.2 µM, the GI50 [10] was 23.2 µM and the TGI [10] was 50.8 µM. The GI50 [3] was 19.9 µM, the TGI [3] was 40.3 µM and the GI50 [4] was 39.3 µM. It also gave a TGI [4] greater than 100 µM, a GI50 [5] of 19 µM and a TGI [5] of 45.5 µM. It also gave a GI50 [7] of 26.2 µM, a TGI [7] greater than 100 µM and a GI50 [8] of 19.8 µM. The TGI [8] was 41.4 µM, the GI50 [9] was 14.6 µM and the TGI [9] was 29.1 µM.
Molecule `CCOP(=O)(OCC)C(NC(c1ccccc1)c1ccccc1)c1ccc(C(C)C)cc1` (stereo not drawn) has a GI50 [1] of 3.39 µM, a TGI [1] of 25.5 µM and a GI50 [2] of 6.01 µM. For the same molecule, the TGI [2] was 20.4 µM, the GI50 [10] was 6.12 µM and the TGI [10] was 20.8 µM. It also gave a GI50 [3] of 10.4 µM, a TGI [3] of 22.9 µM and a GI50 [4] of 4.8 µM. It also gave a TGI [4] of 17.2 µM, a GI50 [5] of 1.87 µM and a TGI [5] of 6.15 µM. The GI50 [6] was 6.65 µM, the TGI [6] was 41.3 µM and the GI50 [7] was 2.57 µM. For the same molecule, the TGI [7] was 64.8 µM, the GI50 [8] was 3.71 µM and the TGI [8] was 11.6 µM.
`C/C=C1/C(=Cc2[nH]c(C=c3[nH]/c(=C/C4=NC(=O)C(CC)=C4C)c(C)c3CCC(=O)O)c(CCC(=O)O)c2C)NC(=O)C1C` (stereo not drawn) was tested, and the TGI [1] was greater than 50 µM, the TGI [2] was greater than 50 µM and the TGI [3] was 20.3 µM. For the same molecule, the TGI [4] was greater than 50 µM, the TGI [5] was greater than 50 µM and the TGI [7] was greater than 50 µM. The TGI [9] was greater than 50 µM.
With `CC(=O)O[C@H]1CC[C@]2(C)C3C(=O)C[C@]4(C)[C@@H](C(C)CCC(=O)O)CC[C@@]4(C)[C@@H]3CC[C@H]2C1(C)C` (stereo partly drawn) the GI50 [2] was 10.2 µM, the TGI [2] was 36.8 µM and the GI50 [10] was greater than 50 µM. The TGI [10] was greater than 50 µM, the GI50 [3] was 21.7 µM and the TGI [3] was greater than 50 µM. It also gave a GI50 [4] of 13.9 µM, a TGI [4] of 38.4 µM and a GI50 [5] of 25.9 µM. It also gave a TGI [5] greater than 50 µM, a GI50 [7] of 40.4 µM and a TGI [7] greater than 50 µM. The GI50 [8] was 13.5 µM, the TGI [8] was 33.8 µM and the GI50 [9] was 34.7 µM. The TGI [9] was greater than 50 µM.
Molecule `O=C(O)CCSC(=O)Nc1ccccc1` has a TGI [1] greater than 100 µM, a TGI [2] greater than 100 µM and a TGI [3] greater than 100 µM. For the same molecule, the TGI [4] was greater than 100 µM, the TGI [5] was greater than 100 µM and the TGI [7] was greater than 100 µM. The TGI [9] was greater than 100 µM.
For `FC(F)(F)c1nc(Br)[nH]c1C(F)(F)F`, the TGI [1] was greater than 100 µM, the TGI [2] was greater than 100 µM and the TGI [3] was greater than 100 µM. The TGI [4] was greater than 100 µM, the TGI [5] was greater than 100 µM and the TGI [7] was greater than 100 µM. It also gave a TGI [9] greater than 100 µM.
`Cc1ccc2c(c1)C(O)(c1ccccc1)CCS2` (stereo not drawn) was tested, and the TGI [2] was greater than 100 µM, the TGI [10] was 39.8 µM and the TGI [3] was 52.7 µM. It also gave a TGI [4] of 54.9 µM, a TGI [5] of 46.9 µM and a TGI [6] greater than 100 µM. It also gave a TGI [7] greater than 100 µM, a TGI [8] of 73.2 µM and a TGI [9] of 65.7 µM.
For `O=C(NCc1ccccc1)C1C(=O)C(=O)N(Cc2ccccc2)C1=O` (stereo not drawn), the TGI [1] was greater than 100 µM, the TGI [2] was greater than 100 µM and the TGI [3] was greater than 100 µM. The TGI [4] was greater than 100 µM, the TGI [5] was greater than 100 µM and the TGI [7] was greater than 100 µM. It also gave a TGI [9] greater than 100 µM.
`CC(=N\O)/C(C)=N/O.CC(=N\O)/C(C)=N/O.[Fe].[NH2-].c1c[nH]cn1` gave a GI50 [2] greater than 100 µM, a TGI [2] greater than 100 µM and a GI50 [10] greater than 100 µM. For the same molecule, the TGI [10] was greater than 100 µM, the GI50 [3] was greater than 100 µM and the TGI [3] was greater than 100 µM. For the same molecule, the GI50 [4] was greater than 100 µM, the TGI [4] was greater than 100 µM and the GI50 [5] was greater than 100 µM. The TGI [5] was greater than 100 µM, the GI50 [6] was greater than 100 µM and the TGI [6] was greater than 100 µM. It also gave a GI50 [7] greater than 100 µM, a TGI [7] greater than 100 µM and a GI50 [8] greater than 100 µM. The TGI [8] was greater than 100 µM, the GI50 [9] was greater than 100 µM and the TGI [9] was greater than 100 µM.
Molecule `O=C1c2ccccc2C(=O)c2sc(Nc3ccc([N+](=O)[O-])cc3)nc21` has a TGI [1] of 5.37 µM, a TGI [2] of 23.2 µM and a TGI [10] of 6.39 µM. The TGI [3] was 8.31 µM, the TGI [4] was 25.8 µM and the TGI [5] was 6.82 µM. The TGI [6] was 6.81 µM, the TGI [7] was 11 µM and the TGI [9] was 26.2 µM.
In the case of `CCN(CC)CCCNc1cc(OC)c(OC)c2cccnc12`, the GI50 [2] is reported as 16.4 µM, the TGI [2] is reported as 54.8 µM and the GI50 [10] is reported as 6.69 µM. It also gave a TGI [10] of 51.4 µM, a GI50 [3] of 3.16 µM and a TGI [3] of 28.7 µM. For the same molecule, the GI50 [4] was 13 µM, the TGI [4] was 31 µM and the GI50 [5] was 2.19 µM. It also gave a TGI [5] of 5.13 µM, a GI50 [6] of 16.4 µM and a TGI [6] of 42 µM. The GI50 [7] was 1.68 µM, the TGI [7] was 3.18 µM and the GI50 [8] was 3.05 µM. For the same molecule, the TGI [8] was 14.4 µM.
